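Briefly, cells in 96-well plates were exposed to five compound concentrations for 48 h, and endpoints were estimated by linear interpolation. At the GI50, growth is halved.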 Active and inactive are the calls of the source. Rule as the data show it: active = GI50 up to about 1.1 µM and inactive = higher.
How the values were obtained:
Assay in all cases: DTP human tumour cell line panel, 48 h
COLO 205 = tested on: COLO 205
HCC 2998 = tested on: HCC 2998
HCT-116 = tested on: HCT-116
HOP-62 = tested on: HOP-62
IGROV-1 = tested on: IGROV-1
K562 = tested on: K562
NCI-H23 = tested on: NCI-H23
NCI-H460 = tested on: NCI-H460
NCI/ADR-RES = tested on: NCI/ADR-RES
OVCAR-3 = tested on: OVCAR-3
OVCAR-4 = tested on: OVCAR-4
OVCAR-5 = tested on: OVCAR-5
RPMI-8226 = tested on: RPMI-8226
SF-539 = tested on: SF-539
SK-MEL-5 = tested on: SK-MEL-5
SNB-75 = tested on: SNB-75
SR = tested on: SR
TK-10 = tested on: TK-10
UACC-257 = tested on: UACC-257
UO-31 = tested on: UO-31

Row | SMILES | GI50 (COLO 205) | GI50 (HCC 2998) | GI50 (HCT-116) | GI50 (HOP-62) | GI50 (IGROV-1) | GI50 (K562) | GI50 (NCI-H23) | GI50 (NCI-H460) | GI50 (NCI/ADR-RES) | GI50 (OVCAR-3) | GI50 (OVCAR-4) | GI50 (OVCAR-5) | GI50 (RPMI-8226) | GI50 (SF-539) | GI50 (SK-MEL-5) | GI50 (SNB-75) | GI50 (SR) | GI50 (TK-10) | GI50 (UACC-257) | GI50 (UO-31)
1 | Cc1cc(S(=O)(=O)Nc2nc(N)nc(N(C)C)n2)c(SCC(=O)O)cc1Cl | > 10 µM (inactive) | > 10 µM (inactive) | > 10 µM (inactive) | > 10 µM (inactive) | > 10 µM (inactive) | > 10 µM (inactive) | > 10 µM (inactive) | > 10 µM (inactive) | > 10 µM (inactive) | > 10 µM (inactive) | > 10 µM (inactive) | > 10 µM (inactive) | > 10 µM (inactive) | > 10 µM (inactive) | > 10 µM (inactive) | > 10 µM (inactive) | > 10 µM (inactive) | > 10 µM (inactive) | > 10 µM (inactive) | > 10 µM (inactive)
2 | Cc1nc2ccccc2n1Cc1ccc(NC(=S)Nc2ccccc2)cc1 | 34.8 µM (inactive) | 92 µM (inactive) | 31.6 µM (inactive) | > 100 µM (inactive) | > 100 µM (inactive) | 33.4 µM (inactive) | 83.9 µM (inactive) | 92.3 µM (inactive) | 72.3 µM (inactive) | 27.9 µM (inactive) | 28.6 µM (inactive) | 37.1 µM (inactive) | 50 µM (inactive) | 23.8 µM (inactive) | 12.3 µM (inactive) | 63.8 µM (inactive) | 20.2 µM (inactive) | > 100 µM (inactive) | 32.7 µM (inactive) | > 100 µM (inactive)
3 | CC1C[C@]2(C)C(=S)Nc3ccccc3[C@@H]2Nc2ccccc21 (stereo not given in full) | 14.2 µM (inactive) | 22.2 µM (inactive) | 12.6 µM (inactive) | 17.7 µM (inactive) | 18.3 µM (inactive) | 26.6 µM (inactive) | 15.2 µM (inactive) | 13.2 µM (inactive) | 18.5 µM (inactive) | 15.1 µM (inactive) | 17.8 µM (inactive) | 20.8 µM (inactive) | 23.4 µM (inactive) | 19.3 µM (inactive) | 17.7 µM (inactive) | 13.9 µM (inactive) | > 100 µM (inactive) | 19 µM (inactive) | 15.6 µM (inactive) | 18.7 µM (inactive)
4 | N#Cc1nn(C2OC(COC(=O)c3ccccc3)C(OC(=O)c3ccccc3)C2OC(=O)c2ccccc2)c2nc[nH]c(=O)c12 (stereo not given) | 27.4 µM (inactive) | 78.2 µM (inactive) | 28.8 µM (inactive) | 90.2 µM (inactive) | 42.7 µM (inactive) | 35.7 µM (inactive) | 24.4 µM (inactive) | 30.4 µM (inactive) | 66.4 µM (inactive) | 46 µM (inactive) | 38.3 µM (inactive) | > 100 µM (inactive) | 39.4 µM (inactive) | 68.4 µM (inactive) | 25.6 µM (inactive) | 76 µM (inactive) | 30.9 µM (inactive) | > 100 µM (inactive) | > 100 µM (inactive) | 56.2 µM (inactive)
5 | COC(=O)C1=C(OC(=O)/C(=C/c2ccccc2)c2ccc(Cl)cc2Cl)C(C(=O)OC)[C@@]2(O)[C@@H](C(=O)OC)[C@H](C)C[C@@H]1[C@@H]2C(=O)OC (stereo not given in full) | > 100 µM (inactive) | > 100 µM (inactive) | > 100 µM (inactive) | > 100 µM (inactive) | > 100 µM (inactive) | > 100 µM (inactive) | > 100 µM (inactive) | > 100 µM (inactive) | > 100 µM (inactive) | > 100 µM (inactive) | > 100 µM (inactive) | > 100 µM (inactive) | > 100 µM (inactive) | > 100 µM (inactive) | 82.8 µM (inactive) | 75.9 µM (inactive) | > 100 µM (inactive) | > 100 µM (inactive) | > 100 µM (inactive) | > 100 µM (inactive)
6 | N#Cc1c(NC(=O)C(F)(F)F)sc2c3c(=O)c4ccccc4c(=O)c=3oc3ccccc3c12 | 14.7 µM (inactive) | 13.9 µM (inactive) | 11.9 µM (inactive) | 20.5 µM (inactive) | 11.9 µM (inactive) | 19.8 µM (inactive) | 9.84 µM (inactive) | 17.6 µM (inactive) | 24.8 µM (inactive) | 10.8 µM (inactive) | 14.7 µM (inactive) | 30.7 µM (inactive) | 12.7 µM (inactive) | 7.24 µM (inactive) | 11.3 µM (inactive) | 16.8 µM (inactive) | 3.28 µM (inactive) | 33 µM (inactive) | 16.7 µM (inactive) | 19 µM (inactive)
7 | O=C1c2c(O)ccc(O)c2C(=O)c2c(NCCNC(=O)C(O)C(O)C(O)C(O)CO)ccc(NCCNC(=O)C(O)C(O)C(O)C(O)CO)c21 (stereo not given) | < 0.01 µM (active) | 0.135 µM (active) | 0.0332 µM (active) | 0.011 µM (active) | < 0.0383 µM (active) | 0.0104 µM (active) | 0.0178 µM (active) | < 0.01 µM (active) | 0.133 µM (active) | 0.279 µM (active) | 0.18 µM (active) | 0.192 µM (active) | < 0.01 µM (active) | < 0.01 µM (active) | 0.016 µM (active) | 0.0356 µM (active) | < 0.01 µM (active) | 0.161 µM (active) | 1.11 µM (active) | 0.0186 µM (active)
8 | COC(=O)/C=C\c1ccc2c(c1)CC1(C2)Cc2ccc(/C=C/C(=O)OC)cc2C1 (stereo not given) | > 31.6 µM (inactive) | > 31.6 µM (inactive) | 24.4 µM (inactive) | 15.2 µM (inactive) | > 31.6 µM (inactive) | > 31.6 µM (inactive) | > 31.6 µM (inactive) | > 100 µM (inactive) | > 31.6 µM (inactive) | > 31.6 µM (inactive) | 22.8 µM (inactive) | > 31.6 µM (inactive) | > 31.6 µM (inactive) | 30 µM (inactive) | > 31.6 µM (inactive) | 1.09 µM (active) | 5.57 µM (inactive) | > 31.6 µM (inactive) | > 31.6 µM (inactive) | > 31.6 µM (inactive)
9 | COc1ccc(/C=C2/SC(c3ccc(Cl)cc3)N(NC(=O)CCCCCCCCC(=O)NN3C(=O)/C(=C\c4ccc(OC)c(OC)c4)SC3c3ccc(Cl)cc3)C2=O)cc1OC (stereo not given) | > 100 µM (inactive) | > 100 µM (inactive) | 30.6 µM (inactive) | 25.8 µM (inactive) | 12.9 µM (inactive) | 78.3 µM (inactive) | 20.4 µM (inactive) | 61 µM (inactive) | > 100 µM (inactive) | 60 µM (inactive) | > 100 µM (inactive) | 87.1 µM (inactive) | > 100 µM (inactive) | 29.2 µM (inactive) | 50.1 µM (inactive) | > 100 µM (inactive) | > 100 µM (inactive) | 75.2 µM (inactive) | 54.3 µM (inactive) | 27.7 µM (inactive)
10 | CSc1nc(C)c(CCOC(C)=O)c(Cl)n1 | > 100 µM (inactive) | > 100 µM (inactive) | > 100 µM (inactive) | > 100 µM (inactive) | > 100 µM (inactive) | > 100 µM (inactive) | > 100 µM (inactive) | > 100 µM (inactive) | > 100 µM (inactive) | > 100 µM (inactive) | > 100 µM (inactive) | > 100 µM (inactive) | > 100 µM (inactive) | > 100 µM (inactive) | > 100 µM (inactive) | > 100 µM (inactive) | > 100 µM (inactive) | > 100 µM (inactive) | > 100 µM (inactive) | > 100 µM (inactive)
11 | COc1cccc(C2c3cc4c(cc3OC(C)(O)C2C)OCO4)c1O (stereo not given) | 2.19 µM (inactive) | 4.2 µM (inactive) | 3.64 µM (inactive) | 4.2 µM (inactive) | 5.2 µM (inactive) | 3.87 µM (inactive) | 0.966 µM (active) | 3.81 µM (inactive) | 2.13 µM (inactive) | 2.81 µM (inactive) | 11.6 µM (inactive) | 8.09 µM (inactive) | 4.17 µM (inactive) | 2.67 µM (inactive) | 2.84 µM (inactive) | 5 µM (inactive) | 2.18 µM (inactive) | 5.56 µM (inactive) | 8.15 µM (inactive) | 6.14 µM (inactive)
12 | CC(=O)O[C@H]1[C@@H](N2CCN(C)CC2)C[C@H]2[C@@H]3CC=C4C[C@@H](N5CCCC5)CC[C@]4(C)[C@H]3CC[C@@]21C | 3.85 µM (inactive) | 17.2 µM (inactive) | 16.9 µM (inactive) | 46.5 µM (inactive) | 68.4 µM (inactive) | 11.2 µM (inactive) | > 100 µM (inactive) | 60.5 µM (inactive) | 98.4 µM (inactive) | 88.7 µM (inactive) | > 100 µM (inactive) | 34.5 µM (inactive) | 19.2 µM (inactive) | 15 µM (inactive) | 25.9 µM (inactive) | > 100 µM (inactive) | < 0.01 µM (active) | > 100 µM (inactive) | 21.1 µM (inactive) | 34.9 µM (inactive)
13 | Cc1ccc(C(=O)/C=C2/Nc3ccccc3NC2=O)c(C)c1 | 62.1 µM (inactive) | 29.4 µM (inactive) | 11.8 µM (inactive) | 5.62 µM (inactive) | 12.7 µM (inactive) | 61.5 µM (inactive) | 16.1 µM (inactive) | 13.2 µM (inactive) | 7.89 µM (inactive) | 32 µM (inactive) | 2.7 µM (inactive) | 44.7 µM (inactive) | 25.2 µM (inactive) | 5.04 µM (inactive) | 19 µM (inactive) | 6.32 µM (inactive) | 29.4 µM (inactive) | 5.58 µM (inactive) | 42.1 µM (inactive) | 8.32 µM (inactive)

Reference: ChEMBL document CHEMBL1201862, “PubChem BioAssay data set” (2004)
